This note sets out measurements from US12559506B2, “Indazole based compounds and associated methods of use” (Arvinas Operations, Inc., priority 2021, dated 2026).

Each structure is given as a SMILES string. Read-outs that look alike come from different tables or passages of the source.

In this experiment the target is T1, LRRK2 (endogenous, HiBit tagged) (Homo sapiens, UniProt Q5S007).
T1 construct: endogenous in cells; host or cells: HEK293 cells with HiBit knock-in at the endogenous LRRK2 locus, stably expressing firefly luciferase
T1 sequence (Q5S007 whole entry): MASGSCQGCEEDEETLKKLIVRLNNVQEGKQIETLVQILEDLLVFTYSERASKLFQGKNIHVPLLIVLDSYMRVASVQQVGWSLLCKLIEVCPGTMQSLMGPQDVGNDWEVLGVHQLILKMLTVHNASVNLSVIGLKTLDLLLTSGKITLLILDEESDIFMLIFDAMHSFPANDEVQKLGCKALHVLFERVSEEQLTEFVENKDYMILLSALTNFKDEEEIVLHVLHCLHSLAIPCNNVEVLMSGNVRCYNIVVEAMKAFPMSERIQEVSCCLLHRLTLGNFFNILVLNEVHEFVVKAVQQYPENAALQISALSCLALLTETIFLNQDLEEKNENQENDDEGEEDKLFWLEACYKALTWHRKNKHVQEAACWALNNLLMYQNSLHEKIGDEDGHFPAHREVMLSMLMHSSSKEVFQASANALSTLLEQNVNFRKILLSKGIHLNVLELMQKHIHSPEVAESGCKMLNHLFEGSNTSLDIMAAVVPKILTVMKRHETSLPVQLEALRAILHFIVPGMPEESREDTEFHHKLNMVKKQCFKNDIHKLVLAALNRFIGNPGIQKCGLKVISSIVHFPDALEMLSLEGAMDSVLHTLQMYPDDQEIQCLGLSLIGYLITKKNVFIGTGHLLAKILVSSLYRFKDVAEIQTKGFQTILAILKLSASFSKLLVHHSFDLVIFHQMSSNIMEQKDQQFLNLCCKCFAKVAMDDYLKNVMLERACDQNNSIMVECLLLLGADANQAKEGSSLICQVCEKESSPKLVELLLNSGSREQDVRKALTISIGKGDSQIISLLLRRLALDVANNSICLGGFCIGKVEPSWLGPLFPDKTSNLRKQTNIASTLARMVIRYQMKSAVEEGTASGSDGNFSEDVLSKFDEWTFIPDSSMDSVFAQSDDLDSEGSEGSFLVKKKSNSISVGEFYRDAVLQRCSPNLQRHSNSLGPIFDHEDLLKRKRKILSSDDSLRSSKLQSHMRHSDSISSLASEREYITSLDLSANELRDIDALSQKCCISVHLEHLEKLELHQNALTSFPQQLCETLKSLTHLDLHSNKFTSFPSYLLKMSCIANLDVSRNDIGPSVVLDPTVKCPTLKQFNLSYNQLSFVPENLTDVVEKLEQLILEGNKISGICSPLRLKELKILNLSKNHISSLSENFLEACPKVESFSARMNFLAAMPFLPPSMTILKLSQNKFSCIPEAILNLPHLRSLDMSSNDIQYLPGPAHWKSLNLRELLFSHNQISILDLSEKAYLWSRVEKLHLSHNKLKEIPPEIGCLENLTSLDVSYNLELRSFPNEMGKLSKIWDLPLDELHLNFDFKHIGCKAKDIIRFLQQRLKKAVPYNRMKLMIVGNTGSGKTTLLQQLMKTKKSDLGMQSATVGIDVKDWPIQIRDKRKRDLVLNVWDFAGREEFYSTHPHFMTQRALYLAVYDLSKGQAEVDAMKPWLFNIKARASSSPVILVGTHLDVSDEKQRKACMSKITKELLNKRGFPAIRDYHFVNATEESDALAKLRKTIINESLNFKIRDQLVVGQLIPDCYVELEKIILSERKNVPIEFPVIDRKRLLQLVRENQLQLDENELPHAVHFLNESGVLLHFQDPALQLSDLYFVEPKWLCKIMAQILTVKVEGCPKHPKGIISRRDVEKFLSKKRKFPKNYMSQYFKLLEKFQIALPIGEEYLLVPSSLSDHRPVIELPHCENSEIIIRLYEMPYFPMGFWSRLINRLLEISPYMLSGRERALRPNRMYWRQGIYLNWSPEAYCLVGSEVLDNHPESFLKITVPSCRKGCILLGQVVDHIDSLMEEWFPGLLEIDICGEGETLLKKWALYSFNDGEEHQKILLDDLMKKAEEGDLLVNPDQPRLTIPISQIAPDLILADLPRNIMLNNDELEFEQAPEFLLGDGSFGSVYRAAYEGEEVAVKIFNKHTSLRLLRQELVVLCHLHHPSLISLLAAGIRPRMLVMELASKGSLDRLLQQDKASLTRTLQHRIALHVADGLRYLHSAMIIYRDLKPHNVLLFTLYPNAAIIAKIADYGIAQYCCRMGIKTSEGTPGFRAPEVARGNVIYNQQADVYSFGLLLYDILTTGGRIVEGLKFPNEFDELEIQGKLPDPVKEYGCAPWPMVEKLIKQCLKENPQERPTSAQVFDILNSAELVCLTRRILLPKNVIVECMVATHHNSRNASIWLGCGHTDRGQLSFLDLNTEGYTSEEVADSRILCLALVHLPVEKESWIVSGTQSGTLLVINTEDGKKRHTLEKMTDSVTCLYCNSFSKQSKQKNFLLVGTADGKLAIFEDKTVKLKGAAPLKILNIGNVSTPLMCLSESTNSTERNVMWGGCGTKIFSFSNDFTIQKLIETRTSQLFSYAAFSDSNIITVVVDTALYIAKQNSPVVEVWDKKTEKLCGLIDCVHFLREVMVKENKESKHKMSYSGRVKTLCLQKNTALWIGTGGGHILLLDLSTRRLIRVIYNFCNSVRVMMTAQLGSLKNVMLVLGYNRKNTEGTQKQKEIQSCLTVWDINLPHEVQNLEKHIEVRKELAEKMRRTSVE
The experiment is described as follows: Endogenous LRRK2 degradation assay, endogenous gene C-terminally HiBit-tagged in HEK293 cells (Nano-Glo Dual Luciferase). In kind it is cell-based. The text has this:
Exemplary Assay for Testing LRRK2 Degradation Driven by Exemplary Hetero-Bifunctional Compounds Designed to Target LRRK2
The assay measures the degradation of LRRK2 in cells where the C-terminus (3′) of the endogenous gene has been tagged with a HiBit sequence in HEK293 cells. The cells also express firefly luciferase, expressed from a Cytomegalovirus promoter and introduced into the HiBit tagged cells and stably expressed. The Nano-Glo® Dual Luciferase Reporter Assay System (Promega™, Madison, WI) was utilized.
Day 1—Preparation of Compound and Assay Plates. Two sets of plates were prepared: a triplicate set for the HiBit assay in white 384-well plates and a triplicate set of plate in black 384-well plates for the Alamar Blue cell viability assay. Briefly, the growth media (DMEM+Glutamax-10% fetal bovine serum-1% Penicillin-Streptomicin) from two T128 flasks was aspirated from the flasks. Cells were washed with Dulbecco's Phosphate Buffered Saline (dPBS) and aspirated. Trypsin (3 mL per flask) was added and the flasks were incubated for 2-3 minutes.
Ten mL of OptiMEM-10% fetal bovine-1% penicillin-streptomycin (hereinafter, “OptiMEM media”) was added to the flask and the cells and transferred to a 50 mL conical tube. A cell count (25 ul of cell into Effendorf vial+25 ul of Trypan Blue Stain) was performed and the cell density adjusted to 15,000 cell/45 μl/well (3.33×10^5/mL) in OptiMEM media.
Fourty-five microliters of the cell suspension (15,000 cells) was aliquoted to each well of the white 384-well plate. The plates incubated at room temperature for 10 minutes before being placed in the 37° C.+5% CO2 incubator overnight
Day 2—Compound Treatment. Exemplary compounds were prepared at a 1 mM starting concentration and 1:3 serial dilution for 11 points CRC prepared and stored in the freezer. The Master Compound Plate was thawed overnight at room temperature. DMSO (20 μL) was added into column 24 of the Master Compound Plate for negative control and 20 μL of 300 μM of Compound 4 in column 23 as positive control.
Intermediate Compound Plate with 4% DMSO in OptiMEM Media. DMSO was added to warm OptiMEM media to achieve a 4% DMSO solution (approximately 50 mL/plate). One-hundred microliters of the OptiMEM-4% DMSO was aliquoted to each well of 384-Well Deep Well Microplates.
The Master Compound Plate and the Intermediate Compound Plate were spun down.
One microliter of compound from the Master Compound Plate was transferred into the Intermediate plate (a 1:100 dilution). The diluted mixture was mixed and 5 μL transferred into the assay plate (a 1:10 dilution) for the final starting concentration of 1 μM. The Treated Assay plates were incubated for 24 hours at 37° C.+5% CO2. The Master Compound Plate was sealed and store at room temperature for a second run that was performed within a week.
Day 3—HiBit Assay. Five microliters of Alamar Blue was added to each well of the black 384-well plates. The plates were incubated for 2 hours in the incubator (37° C.+5% CO2) and at room temperature for one hour. Fluorescence of each plate was read on a plated reader for the Alamar Blue viability assay.
One set of white assay plates was warmed to room temperature (45 minute).
The One Glo luciferase mixture was prepared. The media from white 384-well assay plates was aspirated. Twenty-five μL of the One Glo luciferase mixture was added to each well of the assay plates. The plates were incubated on the bench (room temperature) for 45 minutes, including 10 minutes of shaking at 700 rpm. The luminescence of each plate was read on a plate reader.
1:100 DLR substrate and 1:100 LgBiT Protein dilution were added to the Promega Stop and Glo buffer and mixed just before addition to assay plates. Twenty-five microliters of Stop and Glo mixture was added to each well. Assay plates incubated for at least 45 minutes, including 10 minutes of shaking at 700 rpm. The luminescence of each plate was read on a plate reader.
Analysis of LRRK2 HiBit Screening assays. […]

Where [1] appears, read: endogenous HiBit-tagged LRRK2, HEK293 cells, 24 hours, read-out: **Endogenous WT Dmax (%).
Setting [2] is: endogenous HiBit-tagged LRRK2, HEK293 cells, 24 hours, read-out: *Endogenous WT DC50.
[3] abbreviates: endogenous HiBit-tagged LRRK2 in HEK293 cells, 24 hours treatment, read-out: **Endogenous WT Dmax (%).
Setting [4] is: endogenous HiBit-tagged LRRK2 in HEK293 cells, 24 hours treatment, read-out: *Endogenous WT DC50.
[5] abbreviates: endogenous HiBit-tagged LRRK2 in HEK293 cells, 24 hours treatment, read-out: Endogenous WT DC50.
Setting [6] is: endogenous HiBit-tagged LRRK2 in HEK293 cells, 24 hours treatment, read-out: Endogenous WT Dmax.

Take `CC1(Oc2ccc3n[nH]c(-c4cc(N5CC(OCC6(F)CCN(CC7CCN(c8ccc9c(c8F)CN(C8CCC(=O)NC8=O)C9=O)CC7)CC6)C5)ncn4)c3c2)CC1` (stereo not drawn) [Compound 200, 3-[4-fluoro-5-[4-[[4-fluoro-4-[[1-[6-[5-(1-methylcyclopropoxy)-2H-indazol-3-yl]pyrimidin-4-yl]azetidin-3-yl]oxymethyl]-1-piperidyl]methyl]-1-piperidyl]-1-oxo-isoindolin-2-yl]piperidine-2,6-dione]: under setting [1], the Dmax was no less than 70%. Also, under setting [2], the 50% degradation concentration (DC50) is less than 0.01 µM.

`C[C@H]1CN(CC2(F)CCN(CC3CCN(c4cc(-c5n[nH]c6ccc(OC7(C)CC7)cc56)ncn4)CC3)CC2)CCN1c1ccc2c(c1F)CN(C1CCC(=O)NC1=O)C2=O` (stereo partly drawn) [Compound 355, 3-{4-fluoro-5-[(2S)-4-({4-fluoro-1-[(1-{6-[5-(1-methylcyclopropoxy)-1H-indazol-3-yl]pyrimidin-4-yl}piperidin-4-yl)methyl]piperidin-4-yl}methyl)-2-methylpiperazin-1-yl]-1-oxo-2,3-dihydro-1H-isoindol-2-yl}piperidine-2,6-dione]: under setting [3], the Dmax was in the range of 50 to 70%. Further, the DC50 under setting [4] was less than 0.01 µM.

On to `COc1c(N2CCC(CN3CCN(CC4CCN(c5cc(-c6n[nH]c7ccc(OC8(C)CC8)cc67)ncn5)CC4)CC3(C)C)CC2)ccc2c1CN(C1CCC(=O)NC1=O)C2=O` (stereo not drawn) [Compound 262, 3-{5-[4-({2,2-dimethyl-4-[(1-{6-[5-(1-methylcyclopropoxy)-1H-indazol-3-yl]pyrimidin-4-yl}piperidin-4-yl)methyl]piperazin-1-yl}methyl)piperidin-1-yl]-4-methoxy-1-oxo-2,3-dihydro-1H-isoindol-2-yl}piperidine-2,6-dione], for which, under setting [3], the greatest degradation seen (Dmax) is 50 to 70%. Moreover, under setting [4], the DC50 is less than 0.01 µM.

With `CC1(Oc2ccc3[nH]nc(-c4cc(N5CCC(CN6CCN(C(C)(C)C7CCN(c8ccc9c(c8F)CN(C8CCC(=O)NC8=O)C9=O)CC7)CC6)CC5)ncn4)c3c2)CC1` (stereo not drawn) [Compound 309, 3-{4-fluoro-5-[4-(2-{4-[(1-{6-[5-(1-methylcyclopropoxy)-1H-indazol-3-yl]pyrimidin-4-yl}piperidin-4-yl)methyl]piperazin-1-yl}propan-2-yl)piperidin-1-yl]-1-oxo-2,3-dihydro-1H-isoindol-2-yl}piperidine-2,6-dione], the Dmax under setting [3] was no less than 70%. In addition, the DC50 under setting [4] is less than 0.01 µM.

For `CC1(Oc2cc3c(-c4cc(N5CCN(C[C@H]6CC[C@H](CN7CCN(c8ccc9c(c8F)CN(C8CCC(=O)NC8=O)C9=O)CC7)CC6)CC5)ncn4)n[nH]c3cc2F)CC1` (stereo partly drawn) [Compound 203, 3-[4-fluoro-1-oxo-5-(4-{[(1r,4r)-4-[(4-{6-[6-fluoro-5-(1-methylcyclopropoxy)-1H-indazol-3-yl]pyrimidin-4-yl}piperazin-1-yl)methyl]cyclohexyl]methyl}piperazin-1-yl)-2,3-dihydro-1H-isoindol-2-yl]piperidine-2,6-dione], the DC50 under setting [5] was less than 0.01 µM. For the same compound, under setting [6], the greatest degradation seen (Dmax) was no less than 70%.

As for `COc1c(N2CCC(O[C@H]3CC[C@H](CN4CCN(c5cc(-c6n[nH]c7cnc(OC8(C)CC8)cc67)ncn5)CC4)CC3)CC2)ccc2c1CN(C1CCC(=O)NC1=O)C2=O` (stereo partly drawn) [Compound 273, 3-[4-methoxy-1-oxo-5-(4-{[(1r,4r)-4-[(4-{6-[5-(1-methylcyclopropoxy)-1H-pyrazolo[3,4-c]pyridin-3-yl]pyrimidin-4-yl}piperazin-1-yl)methyl]cyclohexyl]oxy}piperidin-1-yl)-2,3-dihydro-1H-isoindol-2-yl]piperidine-2,6-dione], the Dmax under setting [3] is less than 50%. Moreover, the half-maximal degradation concentration (DC50) under setting [4] is less than 0.01 µM.

In the case of `CC1(Oc2ccc3[nH]nc(-c4cc(N5CCN(C[C@H]6CC[C@H](OC7CCN(c8ccc9c(c8Cl)CN(C8CCC(=O)NC8=O)C9=O)CC7)CC6)CC5)ncn4)c3c2)CC1` (stereo partly drawn) [Compound 243, 3-[4-chloro-1-oxo-5-(4-{[(1r,4r)-4-[(4-{6-[5-(1-methylcyclopropoxy)-1H-indazol-3-yl]pyrimidin-4-yl}piperazin-1-yl)methyl]cyclohexyl]oxy}piperidin-1-yl)-2,3-dihydro-1H-isoindol-2-yl]piperidine-2,6-dione], under setting [5], the DC50 was less than 0.01 µM. The Dmax under setting [6] fell in the range of 50 to 70%.

Turning to `COc1c(N2CCC(CN3CCN(CC4CCN(c5cc(-c6n[nH]c7cnc(OC8(C)CC8)cc67)ncn5)CC4)C[C@@H]3C)CC2)ccc2c1CN(C1CCC(=O)NC1=O)C2=O` (stereo partly drawn) [Compound 271, 3-[4-methoxy-5-(4-{[(2S)-2-methyl-4-[(1-{6-[5-(1-methylcyclopropoxy)-1H-pyrazolo[3,4-c]pyridin-3-yl]pyrimidin-4-yl}piperidin-4-yl)methyl]piperazin-1-yl]methyl}piperidin-1-yl)-1-oxo-2,3-dihydro-1H-isoindol-2-yl]piperidine-2,6-dione], the greatest degradation seen (Dmax) under setting [3] lay in the range of 50 to 70%. Also, the DC50 under setting [4] was less than 0.01 µM.

With `C[C@H]1CN(c2cc(-c3[nH]nc4ccc(OC5(C)CC5)cc34)ncn2)CCN1CCN1CCC(CN2CCN(c3ccc4c(c3F)CN(C3CCC(=O)NC3=O)C4=O)CC2)CC1` (stereo partly drawn) [Compound 184, 3-[4-fluoro-5-[4-[[1-[2-[(2S)-2-methyl-4-[6-[5-(1-methylcyclopropoxy)-2H-indazol-3-yl]pyrimidin-4-yl]piperazin-1-yl]ethyl]-4-piperidyl]methyl]piperazin-1-yl]-1-oxo-isoindolin-2-yl]piperidine-2,6-dione], under setting [1], the maximal degradation (Dmax) was no less than 70%. Under setting [2], the DC50 is less than 0.01 µM.

As for `COc1c(N2CCN(C[C@H]3CO[C@H](CN4CCN(c5cc(-c6n[nH]c7cnc(OC8(C)CC8)cc67)ncn5)CC4)CO3)CC2)ccc2c1CN(C1CCC(=O)NC1=O)C2=O` (stereo partly drawn) [Compound 302, 3-[4-methoxy-5-(4-{[(2s,5r)-5-[(4-{6-[5-(1-methylcyclopropoxy)-1H-pyrazolo[3,4-c]pyridin-3-yl]pyrimidin-4-yl}piperazin-1-yl)methyl]-1,4-dioxan-2-yl]methyl}piperazin-1-yl)-1-oxo-2,3-dihydro-1H-isoindol-2-yl]piperidine-2,6-dione], under setting [3], the maximal degradation (Dmax) fell in the range of 50 to 70%. In addition, the half-maximal degradation concentration (DC50) under setting [4] was less than 0.01 µM.

For the compound `C[C@H]1CN(c2cc(-c3[nH]nc4ccc(OC5(C)CC5)cc34)ncn2)CCN1CC(=O)N1CCC(CN2CCN(c3ccc4c(c3)C(=O)N(C3CCC(=O)NC3=O)C4=O)CC2)CC1` (stereo partly drawn) [Compound 59, 2-(2,6-dioxo-3-piperidyl)-5-[4-[[1-[2-[(2S)-2-methyl-4-[6-[5-(1-methylcyclopropoxy)-2H-indazol-3-yl]pyrimidin-4-yl]piperazin-1-yl]acetyl]-4-piperidyl]methyl]piperazin-1-yl]isoindoline-1,3-dione], the Dmax (endogenous HiBit-tagged LRRK2 in HEK293 cells, 24 hours, read-out: **Endogenous WT Dmax (%)) is no less than 70%. For the same compound, where the note is “endogenous HiBit-tagged LRRK2 in HEK293 cells, 24 hours, read-out: *Endogenous WT DC50”, the DC50 was less than 0.01 µM.

Consider `CC1(Oc2ccc3[nH]nc(-c4ccnc(N5CCC(O[C@H]6CC[C@H](CN7CCN(c8ccc9c(c8F)CN(C8CCC(=O)NC8=O)C9=O)CC7)CC6)CC5)c4)c3c2)CC1` (stereo partly drawn) [Compound 354, 3-(4-fluoro-5-(4-(((1r,4r)-4-((1-(4-(5-(1-methylcyclopropoxy)-1H-indazol-3-yl)pyridin-2-yl)piperidin-4-yl)oxy)cyclohexyl)methyl)piperazin-1-yl)-1-oxoisoindolin-2-yl)piperidine-2,6-dione], for which the Dmax under setting [3] was in the range of 50 to 70%. Besides, under setting [4], the DC50 is less than 0.01 µM.
